In data set [1] the test system is jejunal tissue from rabbits infected with attaching-effacing E. coli (RDEC-1). Kind of data set: Jejunal 3-O-methyl glucose transport in Ussing chambers. The arrangement: species or system rabbit. How it is done: Rabbits infected with attaching-effacing E. coli (RDEC-1) were used (20). Briefly, experimental rabbits (400-600 g) were orally inoculated with 5×10^7 live E. coli in 1 mL 10% sodium bicarbonate. Controls received sodium bicarbonate only. Animals were housed individually in a level B containment room, fed commercial feed and given water ad libitum. Ten days post-infection, all animals were killed with an intra-peritoneal overdose of sodium pentabarbitone following anesthesia with halothane. A 20-cm segment of jejunum beginning 5 cm distal to the ligament of Treitz was then removed and rinsed with ice-cold Kreb's buffer. Both longitudinal and circular muscle layers were stripped from the underlying mucosa and four adjacent pieces of jejunal tissue mounted under short-circuited conditions in Ussing chambers. Both mucosal and serosal surfaces were bathed in 10 ml of oxygenated Kreb's buffer with 10 mM glucose added to the serosal surface to provide metabolic energy to the tissue, 10 mM mannitol added to the mucosal surface to osmotically balance the glucose solution, and 20 mM 3-O-methyl glucose added to both surfaces. Immediately after mounting, 10 μCi 3-O-methyl[^3H]glucose was added to either the serosal or mucosal surface and allowed to equilibrate for 20 min. 3-O-methyl glucose is a non-metabolized glucose analog. Unidirectional mucosal to serosal (Jms) and serosal to mucosal (Jsm) fluxes were then determined by measuring 3 consecutive 5 min flux intervals and an overall 15 min flux interval before and after the addition of 100 ng/ml human recombinant epidermal growth factor (rhEGF) (Austral Biologicals, San Ramon, Calif.) or vehicle to the mucosal reservoir. Net flux (Jnet) was calculated by subtracting the serosal to mucosal flux, Jsm, from the mucosal to serosal flux, Jms. Clinical symptoms were monitored including fecal shedding of the bacterium.

Data set [2] relates to K88 positive E. coli. Kind of data set: Enteropathogenic E. coli infection in piglets, oral EGF. It is filed as in vivo. How it is done:
An enteropathogenic Escherichia coli isolate obtained from Veterinary Pathology Laboratories (VPL), Edmonton, Alberta was utilized in these experiments. This strain was originally isolated from a piglet with diarrhea and is positive for Stb, Lt, and K88 (F4). This strain is referred to as K88 positive E. coli. Enteropathogenic E. coli infections produce primarily a malabsorptive diarrhea, although there is a smaller secretory component.
Bacteria were grown in LB™ broth (Difco Laboratories, Detroit, Mich.) and frozen on Microbank™ porous beads (Pro-Labs Diagnostics, Richmond Hill, ON) at −70° C. For each inoculum preparation, one bead was thawed and incubated in 20 ml sterile LB™ broth for 5 h at 37° C., 200 rpm. Then, the 20 ml starter culture was placed in 980 ml LB™ broth and incubated at 37° C. for 15 hours, 200 rpm. LB™ broth was aliquoted in 18 sterile polystyrene 50 ml tubes (Falcon), centrifuged at 3000 rpm (floor Sorval) for 10 minutes, and all pellets pooled and resuspended in 50 ml 10% […]-sterile PBS.
Inoculum: Piglets received late log phase 1×10^10 (counted by spectrophotometry, 600 nm, A=1.9) live K88 positive E. coli. Bacterial inoculum was delivered in 10% NaHCO3/sterile PBS (5 ml), followed by lactate Ringer's solution (5 ml). The inoculum (10 ml) was delivered via a 40 cm orogastric intubation tube connected to a 20 cc syringe. Total bacterial counts in inoculum were calculated via serial dilutions plated onto LB™ agar and incubated overnight at 37° C., 5% CO2.
A pregnant sow was purchased from a local commercial supplier (Doug Hall, Airdrie, AB) approximately one week prior to due-date. The sow was housed at the University of Calgary farm in a farrowing pen. The sow was given free access to water and pig feed (Doug Hall, Airdrie, AB). Two-day old piglets were weight ranked and randomly assigned to each experimental group (see below), and treatment was initiated that day (Day-1). Inoculation with live K88 positive E. coli was carried out the following day (Day 0). […]

Data set [3] deals with piglets with spontaneous neonatal diarrhea. Kind of data set: Spontaneous neonatal diarrhea in piglets, oral EGF. It is filed as in vivo. An excerpt:
A pregnant sow was purchased from a local commercial supplier (Doug Hall, Airdrie, AB) approximately one week prior to due-date. The sow was housed at the University of Calgary farm in a farrowing pen. The sow was given free access to water and pig feed (Doug Hall, Airdrie, AB). Two-day old piglets were weight ranked and randomly assigned to each experimental group (see below), and treatment was initiated that day (Day 0) and animals assessed 24 hr later. […] Piglets with their sow were housed separately in contained animal facilities for the duration of the experiment at the University of Calgary farm. Housing was at 20° C., with approximate 8:16 h photoperiods.
Piglets were assigned to one of the following experimental groups: 1) untreated animals gavaged orally with 5 mL sterile PBS daily starting on Day 0, and 2) EGF-treated, gavaged orally with rhEGF in 5 mL sterile PBS at a concentration of 100 μg/kg body weight daily starting on Day 0.
The study was terminated on Day 1. A total of 10 piglets were studied, 5 were given EGF, and 5 received vehicle (untreated).
Piglets were checked daily for weight gain, production of diarrhea, and overall clinical condition (alertness, body posture, condition). In addition, daily fecal scoring was carried out twice daily (9:00 am, and 3:00 pm) as follows: 0=solid, formed stools, 1=soft stools with no perineal soiling, 2=non-bloody diarrhea with perineal soiling, 3=bloody diarrhea with perineal soiling.
All morning observations were performed between 7:00 am and 12:00 pm to avoid diurnal variations. One additional fecal scoring was carried out at 3:00 pm.

The test system of data set [4] is pathogenic strains of Escherichia coli. To be noted: in vitro, literature; cited from earlier work.
For data set [5], the system named is Salmonella typhimurium. Conditions: in vitro, literature; cited from earlier work.
Data set [6] concerns Cryptosporidium parvum. To be noted: in vitro, literature; cited from earlier work.
Data set [7] concerns enteropathogenic E. coli. To be noted: literature; cited from earlier work.
Data set [8] has as its system C. parvum. To be noted: literature; cited from earlier work.
Data set [9] concerns giardiasis. Conditions: compared to untreated animals, literature; cited from earlier work.
In data set [10] the test system is bacteria and protozoa. Conditions: literature; cited from earlier work.
The subject of data set [11] is jejunal nutrient transport. To be noted: cited from earlier work.
Setting [12] is: infected tissue treated with EGF compared to controls.
[13] abbreviates: infected tissue, 10 days post-infection, 100 ng/ml rhEGF on mucosal surface.

The source of these data is patent publication US20110245171A1, “REHYDRATION COMPOSITIONS COMPRISING EPIDERMAL GROWTH FACTOR (EGF)” (priority 2004, published 2011).

As for “EGF: 53-amino acid human epidermal growth factor of SEQ ID NO: 1; recombinant human EGF used in the experiments”, in [1] (setting [12]), the “mucosal to serosal 3-O-methyl glucose transport” value is on record as “did not differ” and the “net 3-O-methyl glucose transport” value was “did not differ”. Also, in data set [1] (setting [13]), the “mucosal to serosal flux of 3-O-methyl glucose” value is recorded as “significantly increased” and the “net flux of 3-O-methyl glucose” value is “significantly increased”. Further, the weight gain entry in data set [2] (EGF-treated compared to untreated, over the course of the study) is on record as “did not differ”. For the same substance, the “acceleration of return to normal fecal consistency” value in data set [2] (compared to untreated animals (day 3 instead of day 4)) is “one day”. Moreover, the “day by which fecal scores returned to normal (fecal score of 0 in all animals)” value in data set [2] (rhEGF 100 μg/kg oral gavage daily from Day -1, infected Day 0, untreated: Day 4) was at most 3 days. Further, the fecal scores entry in data set [3] (Day 1, one day after initiation of treatment, rhEGF 100 μg/kg oral, compared with vehicle) is “significantly (P<0.05) reduced”. Moreover, the “animals that had died” value in [3] (Day 1, 5 piglets given EGF, 2 untreated died) is listed as 1. Moreover, the weight gain result in [3] (EGF compared to untreated) was “did not differ”. In data set [4], the “epithelial bacterial translocation and invasion” value is reported as “inhibit”. Besides, the “epithelial bacterial translocation and invasion” value in [5] is recorded as “inhibit”. Moreover, in [6], the epithelial colonization result is on record as “reduce”. Also, in [7], the bacterial colonization result was “significantly inhibited”; the “diarrhea and reduced weight gain associated with the disease” value is reported as “prevented”; the epithelial damage result is “reduced”. Besides, the fecal oocyte passage result in [8] is “decreased”. For the same substance, in [9], the intestinal function result is recorded as “enhanced” and the trophozoite colonization result is given as “inhibited”. In data set [10], the anti-protozoal effect result is “no direct” and the bactericidal effect result is recorded as “no direct”. In addition, in data set [11], the “SGLT1 content in the microsomal fraction” value is on record as “decrease” and the enterocyte glucose transport result is reported as “increase”. Besides, in data set [11] (following administration of octreotide, literature), the “defect in glucose transport” value is on record as “reverse”. Also, in [11] (literature), the “BBMV SGLT1 content” value is reported as “significant increase”, the amino acid transport entry was “rapidly increases”, the “brush border (apical) surface area” value is “increase” and the glucose transport result is on record as “rapidly increases”. Moreover, in data set [11] (literature), the “ileal electroneutral NaCl absorption and brush-border Na+/H+ exchange” value is on record as “increase”; the “jejunal glutamine, alanine galactose and glycine transport” value is “increase”. Also, in data set [11] (mucosal EGF, literature), the “Vmax for glucose uptake into brush border membrane vesicles (BBMV)” value is “increased” and the “Vmax for proline uptake into brush border membrane vesicles (BBMV)” value is listed as “increased”.

As for “TGFα: related peptide that binds to the EGF receptor [reference compound]”, in data set [11] (literature), the “brush border (apical) surface area” value was “had no effect” and the glucose transport result is “had no effect”. The small intestinal absorption entry in data set [11] (some studies, literature) is given as “increase”.
